Where two headings read alike, the source gives them in different places. Each block holds one compound with its values, some of them ahead of it.
What was measured:
rat CPR = conditions: cited from earlier work
[1] = tested on: FMN (flavodoxin-like) domain of P450 BM3 reductase; set-up: method as in PMID 6778861, PMID 11695890, PMID 12600198; conditions: cited from earlier work
[2] = molecular target: Desulfovibrio vulgaris flavodoxin; conditions: D. vulgaris flavodoxin; cited from earlier work
[3] = molecular target: FMN (flavodoxin-like) domain of human reductase; set-up: method as in PMID 6778861, PMID 11695890, PMID 12600198; conditions: cited from earlier work
CYP505A30 [4] = molecular target: T1, CYP505A30 (Thermothelomyces thermophilus, UniProt G2QDZ3); experiment: UV-visible spectral binding titration of fatty acid substrates (type I heme Soret shift) to ca. 4-6 uM enzyme in 50 mM potassium phosphate pH 7.0 at 25 °C, hyperbolic or Morrison fit.; set-up: gene MYCTH_101224; intact CYP505A30, amino acids 1-1080, N-terminal hexahistidine tag (pET15b), expressed in E. coli
heme domain = molecular target: T2, heme domain (Thermothelomyces thermophilus, UniProt G2QDZ3); experiment: as above
T2 construct: gene MYCTH_101224; heme domain, amino acids 1-464 (stop codon at Gly465, named D464X), N-terminal hexahistidine tag (pET15b), expressed in E. coli
T2 sequence (G2QDZ3 1-464): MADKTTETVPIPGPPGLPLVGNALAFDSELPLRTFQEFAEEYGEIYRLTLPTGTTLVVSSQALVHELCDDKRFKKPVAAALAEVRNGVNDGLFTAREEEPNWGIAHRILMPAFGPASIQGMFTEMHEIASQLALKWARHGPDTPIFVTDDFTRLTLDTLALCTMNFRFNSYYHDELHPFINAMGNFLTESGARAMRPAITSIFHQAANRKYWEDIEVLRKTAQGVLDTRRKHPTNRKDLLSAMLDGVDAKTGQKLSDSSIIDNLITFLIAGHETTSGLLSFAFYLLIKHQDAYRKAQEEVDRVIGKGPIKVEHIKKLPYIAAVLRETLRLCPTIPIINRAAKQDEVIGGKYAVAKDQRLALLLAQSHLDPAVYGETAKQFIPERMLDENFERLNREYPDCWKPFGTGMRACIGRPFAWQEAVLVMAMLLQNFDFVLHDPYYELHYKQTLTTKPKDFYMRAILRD

P450 BM3 [5] = conditions: cited from earlier work
CYP505A30 heme domain [6] = molecular target: T3, CYP505A30 heme domain (Thermothelomyces thermophilus, UniProt G2QDZ3); conditions: arachidonic acid-bound heme domain, vs NHE
CYP505A30 [7] = molecular target: T1, CYP505A30; experiment: UV–visible spectral binding titration with intact CYP505A30; conditions: for Kd: substrate binding to intact CYP505A30, heme absorbance change, 25 °C
CYP505A30 heme domain [8] = molecular target: T3, CYP505A30 heme domain; experiment: UV–visible spectral binding titration with CYP505A30 heme domain
CYP505A30 [9] = molecular target: T1, CYP505A30
P450 BM3 [10] = tested on: P450 BM3; set-up: method as in PMID 1727637; conditions: cited from earlier work
CYP505A1 [11] = tested on: CYP505A1; set-up: method as in PMID 11985584; conditions: cited from earlier work
CYP505A1 [12] = experiment: CYP505A1 dodecanoic acid oxidation product distribution (literature); assay type: biochemical, Fusarium oxysporum; conditions: CYP505A1, from literature values
CYP505A30 heme domain [13] = molecular target: T3, CYP505A30 heme domain
CYP505A30 [14] = molecular target: T1, CYP505A30; remark: listed apart in the source

T1 sequence (G2QDZ3 entry or part of it): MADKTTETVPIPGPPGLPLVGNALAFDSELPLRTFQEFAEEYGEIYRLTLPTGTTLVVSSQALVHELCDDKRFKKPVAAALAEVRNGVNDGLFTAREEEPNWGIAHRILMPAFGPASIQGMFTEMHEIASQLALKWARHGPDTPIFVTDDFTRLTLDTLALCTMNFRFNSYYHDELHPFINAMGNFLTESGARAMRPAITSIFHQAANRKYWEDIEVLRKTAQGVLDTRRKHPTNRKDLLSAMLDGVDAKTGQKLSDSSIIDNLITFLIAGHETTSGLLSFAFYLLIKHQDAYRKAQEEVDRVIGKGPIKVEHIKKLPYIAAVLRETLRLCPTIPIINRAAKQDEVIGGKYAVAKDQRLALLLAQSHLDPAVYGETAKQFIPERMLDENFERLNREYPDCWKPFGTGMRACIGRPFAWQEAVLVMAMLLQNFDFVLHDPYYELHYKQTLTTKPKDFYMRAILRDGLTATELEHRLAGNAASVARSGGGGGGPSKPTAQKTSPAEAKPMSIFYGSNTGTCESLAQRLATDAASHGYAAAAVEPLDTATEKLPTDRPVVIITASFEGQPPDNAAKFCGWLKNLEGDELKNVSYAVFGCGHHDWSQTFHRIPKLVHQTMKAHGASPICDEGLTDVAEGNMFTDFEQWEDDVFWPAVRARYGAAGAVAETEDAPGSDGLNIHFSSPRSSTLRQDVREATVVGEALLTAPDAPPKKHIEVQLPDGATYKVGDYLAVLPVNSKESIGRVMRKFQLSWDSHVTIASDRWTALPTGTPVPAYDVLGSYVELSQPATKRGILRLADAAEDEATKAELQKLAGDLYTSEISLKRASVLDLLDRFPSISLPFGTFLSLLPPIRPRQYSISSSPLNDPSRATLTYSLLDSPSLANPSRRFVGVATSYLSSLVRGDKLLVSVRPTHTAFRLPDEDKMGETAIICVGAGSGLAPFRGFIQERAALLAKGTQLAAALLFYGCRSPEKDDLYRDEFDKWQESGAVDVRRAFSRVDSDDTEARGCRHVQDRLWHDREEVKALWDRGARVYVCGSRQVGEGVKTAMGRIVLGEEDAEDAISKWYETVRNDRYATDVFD

SMILES: Cc1cc2nc3c(=O)[nH]c(=O)nc-3n(C[C@H](O)[C@H](O)[C@H](O)COP(=O)(O)OP(=O)(O)OC[C@H]3O[C@@H](n4cnc5c(N)ncnc54)[C@H](O)[C@@H]3O)c2cc1C [FAD, flavin adenine dinucleotide]
- binding (rat CPR): subnanomolar

SMILES: Cc1cc2nc3c(=O)[nH]c(=O)nc-3n(C[C@H](O)[C@H](O)[C@H](O)COP(=O)(O)O)c2cc1C [FMN, flavin mononucleotide]
- Kd [1]: 86 ± 14 nM
- Kd [2]: 2.4 nM
- Kd [3]: 42 ± 7 nM

SMILES: CCCCCCCCCCCCCCCC(=O)NCC(=O)O [N-palmitoylglycine (NPG), N-palmitoylglycine]
- Kd (CYP505A30 [4]): 5.4 ± 0.1 µM
- Kd (heme domain): 2700 ± 800 nM

- heme Fe^III/Fe^II midpoint potential E^0′ (CYP505A30 heme domain [6]): −69 ± 3 mV
- Kd (CYP505A30 [7]): 1.7 ± 0.1 µM
- HS (%) (CYP505A30 [7]; extent of HS heme iron accumulated, intact CYP505A30, estimated to nearest 5%): 60%
- Kd (CYP505A30 heme domain [8]): 0.12 ± 0.01 µM
- HS (%) (CYP505A30 heme domain [8]; extent of HS heme iron accumulated, heme domain, estimated to nearest 5%): 65%
SMILES: CCCCC/C=C\C/C=C\C/C=C\C/C=C\CCCC(=O)O [arachidonic acid]
- kcat (P450 BM3 [5]; P450 BM3, similar conditions): 285 ± 32 s^–1
- rate constant of oxidation (P450 BM3 [5]; P450 BM3): > 17 000 min^–1

SMILES: CCCCCCCCCCCC(=O)O [dodecanoic acid]
- ratio ω-1/ω-2 hydroxylated products (CYP505A30 [9]; CYP505A30): 8.8
- ω-1 hydroxylated product proportion (CYP505A30 [9]; CYP505A30, GC–MS): 88%
- ω-2 hydroxylated product proportion (CYP505A30 [9]; CYP505A30, GC–MS): ~10%
- ω-3 hydroxylated product proportion (CYP505A30 [9]; CYP505A30, GC–MS): 2%
- ω-1 hydroxylated product proportion (CYP505A30 [9]; CYP505A30, GC–MS, listed as lauric acid): approximately 88%
- ω-1 hydroxylated product proportion (P450 BM3 [10]): 48%
- ω-2 hydroxylated product proportion (P450 BM3 [10]): 26%
- ω-3 hydroxylated product proportion (P450 BM3 [10]): 26%
- ω-1 hydroxylated product proportion (CYP505A1 [11]): ~55%
- ω-2 hydroxylated product proportion (CYP505A1 [11]): ~37%
- ω-3 hydroxylated product proportion (CYP505A1 [11]): ~8%
- ratio ω-1/ω-2 hydroxylated products (CYP505A1 [12]): 1.5
- HS (%) (CYP505A30 heme domain [13]): 60%
- Kd (CYP505A30 [7]): 6.1 ± 0.4 µM
- Kd (CYP505A30 heme domain [8]): 9 ± 0.9 µM
- HS (%) (CYP505A30 [14]): 10%

Source: article PMC6044835, “Expression, Purification, and Biochemical Characterization of the Flavocytochrome P450 CYP505A30 from Myceliophthora thermophila” (ACS Omega, 2017)
